Assay results reported in ChEMBL document CHEMBL1201862, “PubChem BioAssay data set” (2004).
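Cultured in 96-well plates, cells were exposed to test compound for 48 hours across five concentrations. Abbreviation: GI50, concentration required for 50% inhibition of growth.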 Calls of active or inactive are those of the source. No stated cut-off is given here; in the data, active = GI50 up to about 1.1 µM and inactive = higher.

Tests used:
Test in all cases: inhibition of tumour cell growth, NCI panel, 48 h
[1] = tested on: XF498
[2] = tested on: M19-MEL
[3] = tested on: DMS-114
[4] = tested on: LXFL 529
[5] = tested on: DLD-1
[6] = tested on: KM-20L2
[7] = tested on: DMS-273
[8] = tested on: SNB-78
[9] = tested on: RXF 631

Row | Structure (SMILES) | GI50 [1] | GI50 [2] | GI50 [3] | GI50 [4] | GI50 [5] | GI50 [6] | GI50 [7] | GI50 [8] | GI50 [9]
1 | C=CC(=O)NCNC(=O)C=C | > 100 µM (inactive) | > 100 µM (inactive) | > 100 µM (inactive) | > 100 µM (inactive) | > 100 µM (inactive) | > 100 µM (inactive) | > 100 µM (inactive) | – | –
2 | Cc1cc(Cl)ccc1NC(=O)C(=O)Cc1ccc([N+](=O)[O-])c([N+](=O)[O-])c1CC(=O)C(=O)Nc1ccc(Cl)cc1C | > 100 µM (inactive) | > 100 µM (inactive) | 60.4 µM (inactive) | > 100 µM (inactive) | – | > 100 µM (inactive) | > 100 µM (inactive) | > 100 µM (inactive) | –
3 | NC(=O)c1csc(C2CCC(CO)O2)n1 (configuration not stated) | – | > 100 µM (inactive) | > 100 µM (inactive) | > 100 µM (inactive) | – | > 100 µM (inactive) | > 100 µM (inactive) | > 100 µM (inactive) | –
4 | Cc1nc(-n2nc(-c3ccccc3)cc2-c2ccccc2)sc1C(/C=C\c1ccc([N+](=O)[O-])cc1)=N/NC(=S)NN | – | > 100 µM (inactive) | 37.4 µM (inactive) | 47.3 µM (inactive) | 19.2 µM (inactive) | 50.6 µM (inactive) | – | 70 µM (inactive) | –
5 | Cn1c2c(c3ccccc31)CCN(CCN1CCN(c3ccccc3)CC1)C2=O | 22.2 µM (inactive) | – | > 100 µM (inactive) | > 100 µM (inactive) | > 100 µM (inactive) | > 100 µM (inactive) | > 100 µM (inactive) | – | > 100 µM (inactive)
6 | CN1c2ccccc2N(C(=O)c2ccccc2)C(CC(=O)O)c2cccn21 (configuration not stated) | > 100 µM (inactive) | > 100 µM (inactive) | > 100 µM (inactive) | > 100 µM (inactive) | – | > 100 µM (inactive) | > 100 µM (inactive) | – | > 100 µM (inactive)
7 | C=C1CC(C/C=C(\C)CC2CC(=C)C(=O)O2)OC1=O (configuration not stated) | > 100 µM (inactive) | > 100 µM (inactive) | > 100 µM (inactive) | > 100 µM (inactive) | > 100 µM (inactive) | > 100 µM (inactive) | > 100 µM (inactive) | > 100 µM (inactive) | > 100 µM (inactive)
8 | Cc1ccc(S(=O)OCC23CC4CC(CC(C4)C2)C3)cc1 (configuration not stated) | > 100 µM (inactive) | > 100 µM (inactive) | – | > 100 µM (inactive) | > 100 µM (inactive) | > 100 µM (inactive) | > 100 µM (inactive) | > 100 µM (inactive) | –
9 | CC(C)(C)C[P+](C)(C)c1ccccc1 | – | > 100 µM (inactive) | > 100 µM (inactive) | > 100 µM (inactive) | > 100 µM (inactive) | 83 µM (inactive) | > 100 µM (inactive) | > 100 µM (inactive) | > 100 µM (inactive)
10 | NS(=O)(=O)c1ccc(NC(=O)CC(=O)Nc2ccc(S(N)(=O)=O)cc2)cc1 | – | > 100 µM (inactive) | > 100 µM (inactive) | > 100 µM (inactive) | > 100 µM (inactive) | > 100 µM (inactive) | > 100 µM (inactive) | > 100 µM (inactive) | –
11 | CCN(CC)CC(=O)Nc1ccc2c(c1)C(=O)c1ccc(NC(=O)CN(CC)CC)cc1C2=O | – | > 100 µM (inactive) | 20.4 µM (inactive) | 22.8 µM (inactive) | 26.2 µM (inactive) | 49.8 µM (inactive) | 18.7 µM (inactive) | 98.9 µM (inactive) | –
12 | CCOC(=O)C1=C(C(=O)OCC)C2(c3ccccc3)N(O1)c1ccccc1C2(C)C (configuration not stated) | – | 70.8 µM (inactive) | – | 36.1 µM (inactive) | 50 µM (inactive) | 39.1 µM (inactive) | – | 54.8 µM (inactive) | –
13 | COc1cc(CNc2nc3c(N)cc(C(F)(F)F)cc3nc2-c2ccccc2)cc(OC)c1OC | 13.7 µM (inactive) | 35.4 µM (inactive) | 12.3 µM (inactive) | 25.6 µM (inactive) | 31.8 µM (inactive) | 29.6 µM (inactive) | 37.8 µM (inactive) | > 10 µM (inactive) | 44.3 µM (inactive)
14 | CCN(CC)CCNC(=O)c1ccc(C)c(OCc2ccccc2)c1[N+](=O)[O-] | 20.8 µM (inactive) | 18.1 µM (inactive) | 26.5 µM (inactive) | 18 µM (inactive) | 34.3 µM (inactive) | 27.2 µM (inactive) | 23.6 µM (inactive) | 61.9 µM (inactive) | –
15 | O=C(CCc1nnc(S)[nH]1)Nc1ccc(Cl)c(Cl)c1 | > 100 µM (inactive) | 43.6 µM (inactive) | 23.5 µM (inactive) | 13.2 µM (inactive) | > 100 µM (inactive) | 6.12 µM (inactive) | 19.8 µM (inactive) | > 100 µM (inactive) | 72.3 µM (inactive)
16 | O=C1NC(=O)C(C(=O)C(=O)Nc2ccc(Br)cc2)C(=O)N1 | > 100 µM (inactive) | > 100 µM (inactive) | > 100 µM (inactive) | > 100 µM (inactive) | > 100 µM (inactive) | > 100 µM (inactive) | > 100 µM (inactive) | > 100 µM (inactive) | > 100 µM (inactive)
17 | CC[n+]1c(/C=C/c2ccc(N(CCCl)CCCl)cc2)ccc2cc(Br)ccc21 | 0.275 µM (active) | 1.2 µM (inactive) | 0.662 µM (active) | 0.67 µM (active) | 2.71 µM (inactive) | 3.13 µM (inactive) | 244 µM (inactive) | 0.76 µM (active) | 630 µM (inactive)
